The source of these data is publication PMC3527734, “Peripheral injections of melanin-concentrating hormone receptor 1 antagonist S38151 decrease food intake and body weight in rodent obesity models” (Frontiers in Endocrinology, 2012).

In one data set the test system is Zucker fa/fa rats. As to conditions: cyclophosphamide 100 mg/kg i.p., S38151 20 nmol/kg (28 μg/kg) i.c.v., n = 8. On the procedure:
These experiments were performed with modifications to previously described methods (Madden et al., [1999]). Rats were individually housed in wire-bottomed plastic cages with free access to both food pellets (6 mm diameter A03 UAR) and kaolin powder. The food pellets were presented in a small porcelain bowl on the floor of the cage. The kaolin powder was presented in a metal feeding dish attached to the inside of the cage. After a 2-week habituation period to these conditions, the animals were randomized into five treatment groups based on the quantity of food eaten during the stabilization period. In addition, those rats that consistently spilled the kaolin powder were eliminated from the study. One day after randomization, the animals were injected just before the beginning of the dark phase with either cyclophosphamide (100 mg/kg, i.p.), or S38151 [20 nmol/kg (28 μg/kg) i.c.v.] or vehicle [(artificial CSF) i.c.v.]. After injection, the quantity of kaolin and food ingested during the following 24-h period was determined. Food or kaolin spilled by the animals was collected at the end of the experiment, and total food and kaolin intake measurements were corrected for this loss.
Figure 5 The effects of S38151 on conditioned taste aversion and pica in Zucker fa/fa rats. (A) In the conditioned taste aversion test, after a period of habituation of the animals to the experimental protocol, Zucker fa/fa rats were presented with 0.2% saccharine for 20 min after drinking water was removed from their cages for 18 h (test day 0). Animals were then injected (i.p.) with vehicle or lithium chloride, or with S38151 (20 nmol/kg, i.c.v). On test days 4, 7, 11, and 14, rats were presented with 0.2% saccharine, and the quantity consumed during a 20-min period was determined. Results are expressed as mean ± SEM (n = 10–11 rats per group). […] (B) In the pica test, Zucker fa/fa rats were injected (i.c.v.) with 20 nmol/kg S38151, or an equivalent volume of artificial cerebrospinal fluid vehicle. Food and kaolin intake during the following 24-h period were each measured. Results are expressed as mean ± SEM (n = 8 rats per group).

In another data set the test system is ob/ob mice. The data set can be described thus: daily i.p. S38151 in ob/ob mice. Format: in vivo, mouse. On the procedure:
(§1) In these studies, 13-week-old female C57BL/6J, ob/ob, and MCH1-KO mice were used. The mice were maintained on a 12-h light/dark cycle (lights on at 07:30 and off at 19:30) at 22 ± 3°C, and supplied with food pellets (6 mm diameter A03, UAR Laboratory chow, Epinay Villemuisson France) and tap water ad libitum. To induce obesity in C57BL/6J (creating diet-induced obese, or DIO, mice), mice were fed a high-fat diet (60 kcal% fat, 20 kcal% protein, 20 kcal% carbohydrate, ref D12492 from Research Diets, New Brunswick, NJ08901, USA) for 8 weeks starting at 4 weeks of age. In these experiments, DIO mice, ob/ob mice, and MCH^−/−1 mice were individually housed in a modular chamber that was placed on an activity platform to concurrently measure the food intake, water intake, and activity of the mice (ADDENFI, Les Cordeliers, Paris, France). For at least 2 weeks before experimentation, mice were habituated to a diet of 6 mm diameter food pellets of the following composition: 67.5% food flour, 26.5% sucrose, 5% gum tragacanth, 1.25% magnesium stearate (A03 UAR, Orge, France), and to i.p. injection. After this habituation period, food intake, drink intake, and body weight were measured for 3 consecutive days. The mice were randomized into three groups based on their food and water intake over the three preceding 24-h periods, and on their body weight. Next, the quantity of food eaten over each 24-h period during the 5 days of i.p. treatment with S38151 [10 and 30 mg/kg/day (7 and 20 μmol/kg/day)] or vehicle was determined and corrected for spillage.
Figure 8 The effects of repeated daily S38151 injection on food and water intake, body weight, and motility in ob/ob mice. Genetically modified ob/ob mice were administered S38151 (10 and 30 mg/kg, i.p.) or vehicle (normal saline i.p.) for 6 consecutive days. Results are expressed as mean ± SEM (n = 8 mice per group). White squares for controls, dark squares for 10 mg/kg, and dark triangles for 30 mg/kg.

For the next data set, the system named is DIO mice. Kind of data set: daily i.p. S38151 in diet-induced obese mice. Format: in vivo, mouse. The procedure:
as §1, with “Next, the quantity of food eaten over each 24-h period during the 5 days of i.p. treatment with S38151 [10 and 30 mg/kg/day (7 and 20 μmol/kg/day)] or vehicle was determined and corrected for spillage.” left out
Figure 9 The effects of repeated daily S38151 injection on food and water intake, body weight, and motility in diet-induced obese (DIO) mice. […] Results are expressed as mean ± SEM (n = 8 mice per group).

Another data set has as its target MCH1. To be noted: ref Audinot et al., 2009, cited from earlier work; for Kb: full antagonist, CHO cells over-expressing MCH1. An excerpt:
S38151 was synthesized during a process that was attempting to find peptides or pseudopeptides with affinity at MCH1 receptor that also had greater stability in biological media. This pseudopeptide is derived from another, very similar agonist, pGua (MCH7-17) (Audinot et al., [2001a], [2009]). […] This activity was specific to MCH1, since it ...

[1] abbreviates: S38151 30 mg/kg i.p., day 6, data not shown.
Setting [2] is: S38151 30 mg/kg i.p. daily for 16 days, data not shown.
Where [3] appears, read: S38151 10 and 30 mg/kg i.p. daily for 5 days, significant from day 2 only at 30 mg/kg, n = 8.

pKi: −log10 of the molar value. Like-named read-outs stand apart in the source and are kept apart here. Where a SMILES comes first, the peptide text is derived from it.

One may read the pKi as the Ki on a negative log10 scale, so that one unit is a factor of ten. The term Kb denotes the equilibrium dissociation constant of an antagonist, usually derived from a functional assay. Regarding `CSCC[C@@H]1NC(=O)[C@@H](NC(=O)c2ccc(NC(=N)N)cc2)CSSC[C@@H](C(=O)N[C@@H](Cc2c[nH]c3ccccc23)C(=O)O)NC(=O)[C@@H]2CCCN2C(=O)[C@H](CCCNC(=N)N)NC(=O)[C@H](Cc2ccc(O)cc2)NC(=O)[C@H](C(C)C)NC(=O)[C@H](CCCNC(=N)N)NC(=O)[C@H](CC(C)C)NC1=O` [S38151, p-guanidinobenzoyl-(Des-Gly10)-MCH (7–17)] (HELM PEPTIDE1{[N=C(N)Nc1ccc(C(=O)[*:2])cc1].C.M.L.R.V.Y.R.P.C.W}$PEPTIDE1,PEPTIDE1,2:R3-10:R3$$$V2.0; C-terminus assumed), the “kaolin intake, 24 h, pica test” value with Zucker fa/fa rats (vehicle 0.05 ± 0.01 g) is listed as “did not significantly alter”. Also, the “food intake, 24 h, pica test” value in the data set with Zucker fa/fa rats (vehicle 27 ± 1 g) was “significantly reduced”. The glycemia and insulinemia result with ob/ob mice (setting [1]) is recorded as “significant reductions”; with DIO mice (setting [2]), “reduced”; in the data set with DIO mice (setting [1]), “significant reductions”. The body weight result in the data set with ob/ob mice (S38151 10 and 30 mg/kg i.p. daily for 6 days, 30 mg/kg significant at days 1, 4, 5, 6) is recorded as “dose-dependent reduction”. For the same compound, the water intake entry with ob/ob mice (S38151 10 and 30 mg/kg i.p. daily for 6 days, same profile as food intake) is “did not reach statistical significance”. In addition, the food intake result was “dose-dependent inhibition” in the data set on ob/ob mice (S38151 10 and 30 mg/kg i.p. daily for 6 days, significant from day 3 only at 30 mg/kg, n = 8); “dose-dependent inhibition” in the data set with DIO mice (setting [3]). In addition, the body weight gain entry in the data set with DIO mice (setting [2]) is listed as “significant reduction”; with DIO mice (S38151 10 and 30 mg/kg i.p. daily for 5 days, significant at day 3 and day 1, respectively), “reduction”. For the same compound, in the data set on DIO mice (setting [2]), the “triglycerides, free fatty acids, and fat mass” value is “significant reduction”. In addition, the drink intake result in the data set on DIO mice (setting [3]) is listed as “dose-dependent inhibition”. In the data set on DIO mice (S38151 10 and 30 mg/kg i.p., day 3 to day 5), the motility entry is “significant reduction”. Moreover, the pKi on MCH1 ([125I]-S36057 binding, Chinese hamster ovary cells over-expressing MCH1) was 7.10. For the same compound, the Kb in the data set on MCH1 (read-out: KB, GTPγS binding assay) was 4.3 nM; with MCH1 (read-out: KB, calcium flux assay), 210 nM.
